We go through 30 molecules from US20090069300A1, “ISOQUINOLINYL AND ISOINDOLINYL DERIVATIVES AS HISTAMINE-3 ANTAGONISTS” (Wyeth, priority 2007, published 2009).

Structures can show the parent of a compound that is named as a salt.

`N#Cc1ccc(-c2ccc3c(c2)CCN(CCCN2CCCCC2)C3=O)cc1` (as salt: hydrochloride) [Example 45, 4-[1-oxo-2-(3-piperidin-1-ylpropyl)-1,2,3,4-tetrahydroisoquinolin-6-yl]benzonitrile hydrochloride] returned a melting point of 249 to 250 °C. Next, `N#Cc1ccc(Oc2ccc3c(c2)CCN(CCN2CCCC2)C3=O)nc1` (as salt: hydrochloride) [Example 47, 6-{[1-oxo-2-(2-pyrrolidin-1-ylethyl)-1,2,3,4-tetrahydroisoquinolin-6-yl]oxy}nicotinonitrile]: 189 to 190 °C.

On to `C[C@@H]1CCCN1CCN1CCc2cc(Oc3ccc(C#N)cn3)ccc2C1=O` (as salt: hydrochloride) [Example 48, 6-[(2-{2-[(2R)-2-methylpyrrolidin-1-yl]ethyl}-1-oxo-1,2,3,4-tetrahydroisoquinolin-6-yl)oxy]nicotinonitrile], for which the melting point lay in the range of 184 to 185 °C. Take `C[C@@H]1CCCN1CCN1CCc2cc(Oc3ccc(C#N)cc3)ccc2C1=O` (as salt: hydrochloride) [Example 49, 4-[(2-{2-[(2R)-2-methylpyrrolidin-1-yl]ethyl}-1-oxo-1,2,3,4-tetrahydroisoquinolin-6-yl)oxy]benzonitrile]: the melting point was 254 to 255 °C. `N#Cc1ccc(Oc2ccc3c(c2)CCN(CCN2CCCC2)C3=O)cc1` (as salt: hydrochloride) [Example 50, 4-{[1-oxo-2-(2-pyrrolidin-1-ylethyl)-1,2,3,4-tetrahydroisoquinolin-6-yl]oxy}benzonitrile] yielded a melting point of 146 to 147 °C. Molecule `C[C@@H]1CCCN1CCN1CCc2cc(Oc3ccc(C#N)nc3)ccc2C1=O` (as salt: hydrochloride) [Example 51, 5-[(2-{2-[(2R)-2-methylpyrrolidin-1-yl]ethyl}-1-oxo-1,2,3,4-tetrahydroisoquinolin-6-yl)oxy]pyridine-2-carbonitrile] came in with a melting point of 218 to 220 °C. Regarding `N#Cc1ccc(Oc2ccc3c(c2)CCN(CCN2CCCC2)C3=O)cn1` (as salt: hydrochloride) [Example 52, 5-{[1-oxo-2-(2-pyrrolidin-1-ylethyl)-1,2,3,4-tetrahydroisoquinolin-6-yl]oxy}pyridine-2-carbonitrile], the melting point lay in the range of 203 to 205 °C. Next, `O=C(c1ccc(-c2ccc3c(c2)CCN(CCN2CCCC2)C3=O)cc1)N1CCCC1` (as salt: hydrochloride) [Example 54, 6-[4-(pyrrolidin-1-ylcarbonyl)phenyl]-2-(2-pyrrolidin-1-ylethyl)-3,4-dihydroisoquinolin-1(2H)-one hydrochloride]: 245 to 248 °C.

In turn, `O=C(NC1CC1)c1ccc(-c2ccc3c(c2)CCN(CCN2CCCC2)C3=O)cc1` (as salt: hydrochloride) [Example 57, N-cyclopropyl-4-[1-oxo-2-(2-pyrrolidin-1-ylethyl)-1,2,3,4-tetrahydroisoquinolin-6-yl]benzamide] gave a melting point of 222 to 224 °C. Next, `CNC(=O)c1ccc(-c2ccc3c(c2)CCN(CCN2CCCC2)C3=O)cc1` (as salt: hydrochloride) [Example 59, N-methyl-4-[1-oxo-2-(2-pyrrolidin-1-ylethyl)-1,2,3,4-tetrahydroisoquinolin-6-yl]benzamide]: 235 to 236 °C; `O=C(NCC1CC1)c1ccc(-c2ccc3c(c2)CCN(CCN2CCCC2)C3=O)cc1` (as salt: hydrochloride) [Example 60, N-(cyclopropylmethyl)-4-[1-oxo-2-(2-pyrrolidin-1-ylethyl)-1,2,3,4-tetrahydroiso-quinolin-6-yl]benzamide]: 216 to 218 °C.

For the molecule `CC(C)NC(=O)c1ccc(-c2ccc3c(c2)CCN(CCN2CCCC2)C3=O)cc1` (as salt: hydrochloride) [Example 61, N-isopropyl-4-[1-oxo-2-(2-pyrrolidin-1-ylethyl)-1,2,3,4-tetrahydroisoquinolin-6-yl]benzamide], the melting point lay within 257 to 259 °C. The result for `CCN(CC)C(=O)c1ccc(-c2ccc3c(c2)CCN(CCN2CCCC2)C3=O)cc1` (as salt: hydrochloride) [Example 62, N,N-diethyl-4-[1-oxo-2-(2-pyrrolidin-1-ylethyl)-1,2,3,4-tetrahydroisoquinolin-6-yl]benzamide] reads 177 to 178 °C; that for `O=C(NC1CCC1)c1ccc(-c2ccc3c(c2)CCN(CCN2CCCC2)C3=O)cc1` (as salt: hydrochloride) [Example 63, N-cyclobutyl-4-[1-oxo-2-(2-pyrrolidin-1-ylethyl)-1,2,3,4-tetrahydroisoquinolin-6-yl]benzamide], 255 to 258 °C; that for `O=C(c1ccc(-c2ccc3c(c2)CCN(CCN2CCCC2)C3=O)cc1)N1CCC1` (as salt: hydrochloride) [Example 64, 6-[4-(azetidin-1-ylcarbonyl)phenyl]-2-(2-pyrrolidin-1-ylethyl)-3,4-dihydroisoquinolin-1(2H)-one], 229 to 230 °C. Consider `CCN(CC)C(=O)c1ccc(-c2ccc3c(c2)CCN(CCN2CCC[C@H]2C)C3=O)cc1` (as salt: hydrochloride) [Example 65, N,N-diethyl-4-(2-{2-[(2R)-2-methylpyrrolidin-1-yl]ethyl}-1-oxo-1,2,3,4-tetrahydroisoquinolin-6-yl)benzamide], for which the melting point was 221 to 222 °C. `C[C@@H]1CCCN1CCN1CCc2cc(-c3ccc(C(=O)N4CCCC4)cc3)ccc2C1=O` (as salt: hydrochloride) [Example 66, 2-{2-[(2R)-2-methylpyrrolidin-1-yl]ethyl}-6-[4-(pyrrolidin-1-ylcarbonyl)phenyl]-3,4-dihydroisoquinolin-1(2H)-one] showed a melting point of 243 to 244 °C. Consider `NC(=O)c1ccc(-c2ccc3c(c2)CCN(CCN2CCCC2)C3=O)cc1` (as salt: hydrochloride) [Example 67, 4-[1-oxo-2-(2-pyrrolidin-1-ylethyl)-1,2,3,4-tetrahydroisoquinolin-6-yl]benzamide], for which the melting point was in the range of 268 to 270 °C.

Take `O=C(NCCF)c1ccc(-c2ccc3c(c2)CCN(CCN2CCCC2)C3=O)cc1` (as salt: hydrochloride) [Example 68, N-(2-fluoroethyl)-4-[1-oxo-2-(2-pyrrolidin-1-ylethyl)-1,2,3,4-tetrahydroisoquinolin-6-yl]benzamide]: the melting point lay within 215 to 216 °C. `COCCNC(=O)c1ccc(-c2ccc3c(c2)CCN(CCN2CCCC2)C3=O)cc1` (as salt: hydrochloride) [Example 69, N-(2-methoxyethyl)-4-[1-oxo-2-(2-pyrrolidin-1-ylethyl)-1,2,3,4-tetrahydroisoquinolin-6-yl]benzamide] came in with a melting point of 178 to 180 °C.

As to `CC(C)OCCNC(=O)c1ccc(-c2ccc3c(c2)CCN(CCN2CCCC2)C3=O)cc1` (as salt: hydrochloride) [Example 70, N-(2-isopropoxyethyl)-4-[1-oxo-2-(2-pyrrolidin-1-ylethyl)-1,2,3,4-tetrahydroisoquinolin-6-yl]benzamide], the melting point lay within 164 to 166 °C. Turning to `O=C(NCCOc1ccccc1)c1ccc(-c2ccc3c(c2)CCN(CCN2CCCC2)C3=O)cc1` (as salt: hydrochloride) [Example 71, 4-[1-oxo-2-(2-pyrrolidin-1-ylethyl)-1,2,3,4-tetrahydroisoquinolin-6-yl]-N-(2-phenoxyethyl)-benzamide], the melting point was 123 to 130 °C. As for `CCOCCNC(=O)c1ccc(-c2ccc3c(c2)CCN(CCN2CCCC2)C3=O)cc1` (as salt: hydrochloride) [Example 72, N-(2-ethoxyethyl)-4-[1-oxo-2-(2-pyrrolidin-1-ylethyl)-1,2,3,4-tetrahydroisoquinolin-6-yl]benzamide], the melting point was 193 to 195 °C. Take `C[C@@H]1CCCN1CCN1CCc2cc(-c3ccc(C(=O)NCC4CC4)cc3)ccc2C1=O` (as salt: hydrochloride) [Example 73, N-(cyclopropylmethyl)-4-(2-{2-[(2R)-2-methylpyrrolidin-1-yl]ethyl}-1-oxo-1,2,3,4-tetrahydroisoquinolin-6-yl)benzamide]: the melting point lay in the range of 188 to 190 °C. The molecule `C[C@@H]1CCCN1CCN1CCc2cc(-c3ccc(C(=O)NC4CCC4)cc3)ccc2C1=O` (as salt: hydrochloride) [Example 74, N-cyclobutyl-4-(2-{2-[(2R)-2-methylpyrrolidin-1-yl]ethyl}-1-oxo-1,2,3,4-tetrahydroisoquinolin-6-yl)benzamide] showed a melting point of 210 to 211 °C. `CCNC(=O)c1ccc(-c2ccc3c(c2)CCN(CCN2CCC[C@H]2C)C3=O)cc1` (as salt: hydrochloride) [Example 75, N-ethyl-4-(2-{2-[(2R)-2-methylpyrrolidin-1-yl]ethyl}-1-oxo-1,2,3,4-tetrahydroisoquinolin-6-yl)benzamide] yielded a melting point of 228 to 230 °C. Take `C[C@@H]1CCCN1CCN1CCc2cc(-c3ccc(C(=O)NC4CC4)cc3)ccc2C1=O` (as salt: hydrochloride) [Example 76, N-cyclopropyl-4-(2-{2-[(2R)-2-methylpyrrolidin-1-yl]ethyl}-1-oxo-1,2,3,4-tetrahydroisoquinolin-6-yl)benzamide]: the melting point fell in the range of 255 to 257 °C. The molecule `CC(C)NC(=O)c1ccc(-c2ccc3c(c2)CCN(CCN2CCC[C@H]2C)C3=O)cc1` (as salt: hydrochloride) [Example 77, N-isopropyl-4-(2-{2-[(2R)-2-methylpyrrolidin-1-yl]ethyl}-1-oxo-1,2,3,4-tetrahydroisoquinolin-6-yl)benzamide] showed a melting point of 188 to 189 °C.

With `CNC(=O)c1ccc(-c2ccc3c(c2)CCN(CCN2CCC[C@H]2C)C3=O)cc1` (as salt: hydrochloride) [Example 78, N-methyl-4-(2-{2-[(2R)-2-methylpyrrolidin-1-yl]ethyl}-1-oxo-1,2,3,4-tetrahydroisoquinolin-6-yl)benzamide], the melting point lay in the range of 258 to 260 °C. Molecule `O=C(c1ccc(-c2ccc3c(c2)CCN(CCN2CCCC2)C3=O)cc1)N1CCCCC1` (as salt: hydrochloride) [Example 79, 6-[4-(piperidin-1-ylcarbonyl)phenyl]-2-(2-pyrrolidin-1-ylethyl)-3,4-dihydroisoquinolin-1(2H)-one] showed a melting point of 240 to 241 °C.
